Test results as given in ChEMBL document CHEMBL5120838, “Synthesis and biological evaluation of geniposide derivatives as inhibitors of hyperuricemia, inflammatory and fibrosis” (Eur J Med Chem, 2022).
Activity calls are given as the source filed them. The calls are words filed in the database; no cut-off is given here.

What was measured:
[1] = molecular target: Xanthine dehydrogenase/oxidase (Bos taurus, UniProt P80457); assay: Inhibition of bovine XOD assessed as inhibition of uric acid formation using xanthine as substrate preincubated with enzyme for 5 mins followed by substrate addition and measured for 30 mins by microplate reader analysis
[2] = test system: Mus musculus; assay: Anti-hyperuricemic activity against adenine and potassium oxonate-induced hyperuricemia Kunming mouse model assessed as reduction in serum creatinine level at 20 mg/kg, po administered via gavage once daily for 2 weeks (reference value: 87.62 +/- 0.67 uM); type: functional
[3] = test system: Mus musculus; assay: (§1) Nephroprotective activity against adenine and potassium oxonate-induced hyperuricemia Kunming mouse model assessed as reduction in renal tubule dilation at 20 mg/kg, po administered via gavage and measured after 21 days by hematoxylin-eosin and Masson trichrome staining based optical microscopic analysis; type: functional, organism-based; conditions: time 21.0 day
[4] = test system: Mus musculus; assay: as §1, with “tubular-interstitial lesion development” for “renal tubule dilation”; type: functional, organism-based; conditions: time 21.0 day
[5] = test system: Mus musculus; assay: (§2) Nephroprotective activity against adenine and potassium oxonate-induced hyperuricemia Kunming mouse model assessed as reduction in cytoplasmic vacuolation of renal tubular epithelial cells at 20 mg/kg, po administered via gavage and measured after 21 days by hematoxylin-eosin and Masson trichrome staining based optical microscopic analysis; type: functional, organism-based; conditions: time 21.0 day
[6] = test system: Mus musculus; assay: as §1, with “neutrophils infiltrations” for “renal tubule dilation”; type: functional, organism-based; conditions: time 21.0 day
[7] = test system: Mus musculus; assay: Anti-hyperuricemic activity against adenine and potassium oxonate-induced hyperuricemia Kunming mouse model assessed as reduction in serum uric acid level at 20 mg/kg, po administered via gavage once daily for 2 weeks (reference value: 318.16 +/- 3.31 uM); type: functional
[8] = test system: Mus musculus; assay: as §2, with “appearance” for “reduction in cytoplasmic vacuolation”, “clear” for “renal”, “structures” for “epithelial cells”; type: functional, organism-based; conditions: time 21.0 day
[9] = test system: Mus musculus; assay: as §1, with “connective tissue hyperplasia” for “renal tubule dilation”; type: functional, organism-based; conditions: time 21.0 day
[10] = test system: Mus musculus; assay: Anti-hyperuricemic activity against adenine and potassium oxonate-induced hyperuricemia Kunming mouse model assessed as blood urea nitrogen level at 20 mg/kg, po administered via gavage once daily for 2 weeks (reference value: 9.88 +/- 1.21 mM); type: functional

Sequence of Xanthine dehydrogenase/oxidase (P80457 whole entry): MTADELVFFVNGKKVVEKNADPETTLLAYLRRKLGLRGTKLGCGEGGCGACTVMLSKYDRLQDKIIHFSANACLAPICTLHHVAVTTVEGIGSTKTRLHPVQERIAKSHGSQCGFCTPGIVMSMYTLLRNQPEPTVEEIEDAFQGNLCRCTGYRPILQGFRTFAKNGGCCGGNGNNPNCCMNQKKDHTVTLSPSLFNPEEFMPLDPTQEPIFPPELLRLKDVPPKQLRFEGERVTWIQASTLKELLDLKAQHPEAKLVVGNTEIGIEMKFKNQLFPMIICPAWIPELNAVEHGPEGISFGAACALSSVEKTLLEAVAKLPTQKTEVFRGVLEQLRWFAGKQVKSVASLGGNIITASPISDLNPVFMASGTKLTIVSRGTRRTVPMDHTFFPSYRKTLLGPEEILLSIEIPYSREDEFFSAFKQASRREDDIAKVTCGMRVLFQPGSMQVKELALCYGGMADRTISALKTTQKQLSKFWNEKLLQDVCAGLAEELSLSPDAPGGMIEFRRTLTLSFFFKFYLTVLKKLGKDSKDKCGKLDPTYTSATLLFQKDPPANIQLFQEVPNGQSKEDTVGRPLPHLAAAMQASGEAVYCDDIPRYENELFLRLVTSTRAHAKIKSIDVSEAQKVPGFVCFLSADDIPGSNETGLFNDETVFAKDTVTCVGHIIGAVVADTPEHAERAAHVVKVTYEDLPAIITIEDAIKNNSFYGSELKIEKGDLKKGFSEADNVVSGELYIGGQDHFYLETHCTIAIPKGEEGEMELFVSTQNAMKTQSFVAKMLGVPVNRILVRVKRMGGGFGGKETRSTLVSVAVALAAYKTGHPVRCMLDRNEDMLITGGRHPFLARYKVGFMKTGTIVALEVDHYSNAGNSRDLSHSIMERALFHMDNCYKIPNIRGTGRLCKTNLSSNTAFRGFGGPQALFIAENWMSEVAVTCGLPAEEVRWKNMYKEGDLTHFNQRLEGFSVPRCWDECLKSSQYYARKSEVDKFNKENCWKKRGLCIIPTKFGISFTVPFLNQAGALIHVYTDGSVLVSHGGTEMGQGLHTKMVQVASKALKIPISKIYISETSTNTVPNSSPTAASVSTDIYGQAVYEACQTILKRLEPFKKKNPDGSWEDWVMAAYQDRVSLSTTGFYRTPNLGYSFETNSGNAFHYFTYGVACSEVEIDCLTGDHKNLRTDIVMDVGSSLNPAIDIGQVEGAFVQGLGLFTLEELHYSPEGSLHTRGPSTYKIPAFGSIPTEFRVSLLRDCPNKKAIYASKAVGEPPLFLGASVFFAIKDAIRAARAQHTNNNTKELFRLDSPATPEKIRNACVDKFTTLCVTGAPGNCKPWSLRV

Row | SMILES | IC50 [1] | also measured
1 | CC(=O)OCC1=CC[C@@H]2C(C(=O)Nc3cncc4ccccc34)=CO[C@@H](O[C@@H]3O[C@H](COC(C)=O)[C@@H](OC(C)=O)[C@H](OC(C)=O)[C@H]3OC(C)=O)[C@H]12 | 18.5 µM | –
2 | CC(C)(C)C(=O)OCC1=CC[C@@H]2C(C(=O)O)=CO[C@@H](O[C@@H]3O[C@H](COC(=O)C(C)(C)C)[C@@H](OC(=O)C(C)(C)C)[C@H](OC(=O)C(C)(C)C)[C@H]3OC(=O)C(C)(C)C)[C@H]12 | 91.2 µM | –
3 | CC(=O)OCC1=CC[C@@H]2C(C(=O)Nn3ncc4ccccc43)=CO[C@@H](O[C@@H]3O[C@H](COC(C)=O)[C@@H](OC(C)=O)[C@H](OC(C)=O)[C@H]3OC(C)=O)[C@H]12 | 22.8 µM | –
4 | CC(=O)OCC1=CC[C@@H]2C(C(=O)Oc3ccncc3)=CO[C@@H](O[C@@H]3O[C@H](COC(C)=O)[C@@H](OC(C)=O)[C@H](OC(C)=O)[C@H]3OC(C)=O)[C@H]12 | 9.15 µM | –
5 | CC(=O)OCC1=CC[C@@H]2C(C(=O)Nc3nn[nH]n3)=CO[C@@H](O[C@@H]3O[C@H](COC(C)=O)[C@@H](OC(C)=O)[C@H](OC(C)=O)[C@H]3OC(C)=O)[C@H]12 | 63.9 µM | –
6 | CC(=O)OCC1=CC[C@@H]2C(C(=O)Nc3ccc(C#N)cc3)=CO[C@@H](O[C@@H]3O[C@H](COC(C)=O)[C@@H](OC(C)=O)[C@H](OC(C)=O)[C@H]3OC(C)=O)[C@H]12 | 1.86 µM | Activity [2]: 89.09 µM; Activity [3]: Active; Activity [4]: Active; Activity [5]: Active; Activity [6]: Active; Activity [7]: 244.57 µM; Activity [8]: Active; Activity [9]: Active; Activity [10]: 7.29 mM
7 | COC(=O)C1=COC(O)[C@@H]2C(CO)=CC[C@H]12 (stereo partly specified) | 93.4 µM | –
8 | CCCC(=O)OCC1=CC[C@@H]2C(C(=O)O)=CO[C@@H](O[C@@H]3O[C@H](COC(=O)CCC)[C@@H](OC(=O)CCC)[C@H](OC(=O)CCC)[C@H]3OC(=O)CCC)[C@H]12 | 55.7 µM | –
9 | CC(=O)OCC1=CC[C@@H]2C(C(=O)Nc3ccc(Br)c4ccccc34)=CO[C@@H](O[C@@H]3O[C@H](COC(C)=O)[C@@H](OC(C)=O)[C@H](OC(C)=O)[C@H]3OC(C)=O)[C@H]12 | 4.14 µM | Activity [2]: 57.83 µM; Activity [3]: Active; Activity [4]: Active; Activity [5]: Active; Activity [6]: Active; Activity [7]: 242.83 µM; Activity [8]: Active; Activity [9]: Active; Activity [10]: 6.02 mM
10 | COC(=O)C1=COC(OC(=O)Nc2ccc(C)cc2)[C@@H]2C(COC(=O)Nc3ccc(C)cc3)=CC[C@H]12 (stereo partly specified) | 73.6 µM | –
11 | CC(=O)OCC1=CC[C@@H]2C(C(=O)O)=CO[C@@H](O[C@@H]3O[C@H](COC(C)=O)[C@@H](OC(C)=O)[C@H](OC(C)=O)[C@H]3OC(C)=O)[C@H]12 | 35.3 µM | –
12 | COC(=O)C1=COC(OC(=O)NC(C)(C)C)[C@@H]2C(COC(=O)NC(C)(C)C)=CC[C@H]12 (stereo partly specified) | 104 µM | –
13 | CC(=O)OCC1=CC[C@@H]2C(C(=O)Oc3cncc4ccccc34)=CO[C@@H](O[C@@H]3O[C@H](COC(C)=O)[C@@H](OC(C)=O)[C@H](OC(C)=O)[C@H]3OC(C)=O)[C@H]12 | 30.7 µM | –
14 | COC(=O)C1=CO[C@@H](O[C@@H]2O[C@H](CO)[C@@H](O)[C@H](O)[C@H]2O)[C@H]2[C@@H]1CC1OC12CO (stereo partly specified) | 165 µM | –
15 | CC(=O)OCC1=CC[C@@H]2C(C(=O)Oc3cccc(C#N)c3)=CO[C@@H](O[C@@H]3O[C@H](COC(C)=O)[C@@H](OC(C)=O)[C@H](OC(C)=O)[C@H]3OC(C)=O)[C@H]12 | 5.15 µM | –
16 | COC(=O)C1=COC(OC(=O)Nc2cccc(C)c2)[C@@H]2C(COC(=O)Nc3cccc(C)c3)=CC[C@H]12 (stereo partly specified) | 140 µM | –
17 | CCNC(=O)OCC1=CC[C@@H]2C(C(=O)OC)=COC(OC(=O)NCC)[C@H]12 (stereo partly specified) | 61.2 µM | –

Second part, led by results:

Row | IC50 [1] | SMILES | also measured
18 | 23.9 µM | COC(=O)C1=COC(OC(=O)Nc2ccccc2Br)[C@@H]2C(COC(=O)Nc3ccccc3Br)=CC[C@H]12 (stereo partly specified) | –
19 | 87.5 µM | CC(=O)OCC1=CC[C@@H]2C(C(=O)Sc3ncc[nH]3)=CO[C@@H](O[C@@H]3O[C@H](COC(C)=O)[C@@H](OC(C)=O)[C@H](OC(C)=O)[C@H]3OC(C)=O)[C@H]12 | –
20 | 73.6 µM | CC(=O)OCC1=CC[C@@H]2C(C(=O)Nc3ccc(C(=O)NCC(=O)O)cc3)=CO[C@@H](O[C@@H]3O[C@H](COC(C)=O)[C@@H](OC(C)=O)[C@H](OC(C)=O)[C@H]3OC(C)=O)[C@H]12 | –
21 | 15.8 µM | CC(=O)OCC1=CC[C@@H]2C(C(=O)NCCC#N)=CO[C@@H](O[C@@H]3O[C@H](COC(C)=O)[C@@H](OC(C)=O)[C@H](OC(C)=O)[C@H]3OC(C)=O)[C@H]12 | –
22 | 2.15 µM | CC(=O)OCC1=CC[C@@H]2C(C(=O)Nn3cccc3)=CO[C@@H](O[C@@H]3O[C@H](COC(C)=O)[C@@H](OC(C)=O)[C@H](OC(C)=O)[C@H]3OC(C)=O)[C@H]12 | Activity [2]: 65.57 µM; Activity [3]: Active; Activity [4]: Active; Activity [5]: Active; Activity [6]: Active; Activity [7]: 263.03 µM; Activity [8]: Active; Activity [9]: Active; Activity [10]: 6.42 mM
23 | 48.8 µM | COC(=O)C1=COC(OC(=O)NCCCCl)[C@@H]2C(COC(=O)NCCCCl)=CC[C@H]12 (stereo partly specified) | –
24 | 20.5 µM | CC(=O)OCC1=CC[C@@H]2C(C(=O)Sc3ccncc3)=CO[C@@H](O[C@@H]3O[C@H](COC(C)=O)[C@@H](OC(C)=O)[C@H](OC(C)=O)[C@H]3OC(C)=O)[C@H]12 | –
25 | 80.2 µM | COC(=O)C1=COC(OC(=O)NC(C)C)[C@@H]2C(COC(=O)NC(C)C)=CC[C@H]12 (stereo partly specified) | –
26 | 8.74 µM | CC(=O)OCC1=CC[C@@H]2C(C(=O)On3cccn3)=CO[C@@H](O[C@@H]3O[C@H](COC(C)=O)[C@@H](OC(C)=O)[C@H](OC(C)=O)[C@H]3OC(C)=O)[C@H]12 | –
27 | 75.5 µM | CC(=O)OCC1=CC[C@@H]2C(C(=O)Nc3ccccc3-c3ccccc3)=CO[C@@H](O[C@@H]3O[C@H](COC(C)=O)[C@@H](OC(C)=O)[C@H](OC(C)=O)[C@H]3OC(C)=O)[C@H]12 | –
28 | 69.7 µM | CC(C)CC(=O)OCC1=CC[C@@H]2C(C(=O)O)=CO[C@@H](O[C@@H]3O[C@H](COC(=O)CC(C)C)[C@@H](OC(=O)CC(C)C)[C@H](OC(=O)CC(C)C)[C@H]3OC(=O)CC(C)C)[C@H]12 | –
29 | 62.2 µM | O=C(O)C1=CO[C@@H](O[C@@H]2O[C@H](CO)[C@@H](O)[C@H](O)[C@H]2O)[C@@H]2C(CO)=CC[C@H]12 [GENIPOSIDIC ACID] | –
30 | 28.8 µM | CC(=O)OCC1=CC[C@@H]2C(C(=O)Nc3cccc(F)c3)=CO[C@@H](O[C@@H]3O[C@H](COC(C)=O)[C@@H](OC(C)=O)[C@H](OC(C)=O)[C@H]3OC(C)=O)[C@H]12 | –
31 | 32.4 µM | CC(=O)OCC1=CC[C@@H]2C(C(=O)Nc3ccc(C(=O)O)cc3)=CO[C@@H](O[C@@H]3O[C@H](COC(C)=O)[C@@H](OC(C)=O)[C@H](OC(C)=O)[C@H]3OC(C)=O)[C@H]12 | –
32 | 181 µM | CC(=O)OCC1=CC[C@@H]2C(C(=O)SCc3ccccc3)=CO[C@@H](O[C@@H]3O[C@H](COC(C)=O)[C@@H](OC(C)=O)[C@H](OC(C)=O)[C@H]3OC(C)=O)[C@H]12 | –
33 | 17.5 µM | CC(=O)OCC1=CC[C@@H]2C(C(=O)Nc3cccc4[nH]ccc34)=CO[C@@H](O[C@@H]3O[C@H](COC(C)=O)[C@@H](OC(C)=O)[C@H](OC(C)=O)[C@H]3OC(C)=O)[C@H]12 | –
34 | 36.6 µM | CC(=O)OCC1=CC[C@@H]2C(C(=O)NCc3ccncc3)=CO[C@@H](O[C@@H]3O[C@H](COC(C)=O)[C@@H](OC(C)=O)[C@H](OC(C)=O)[C@H]3OC(C)=O)[C@H]12 | –
35 | 48.8 µM | CCC(=O)OCC1=CC[C@@H]2C(C(=O)O)=CO[C@@H](O[C@@H]3O[C@H](COC(=O)CC)[C@@H](OC(=O)CC)[C@H](OC(=O)CC)[C@H]3OC(=O)CC)[C@H]12 | –
36 | 12.8 µM | COC(=O)C1=COC(OC(=O)Nc2ccc(OC)cc2)[C@@H]2C(COC(=O)Nc3ccc(OC)cc3)=CC[C@H]12 (stereo partly specified) | –
37 | 12.6 µM | CC(=O)OCC1=CC[C@@H]2C(C(=O)SC3=NCCS3)=CO[C@@H](O[C@@H]3O[C@H](COC(C)=O)[C@@H](OC(C)=O)[C@H](OC(C)=O)[C@H]3OC(C)=O)[C@H]12 | –
38 | 281 µM | COC(=O)C1=COC(OC(=O)NC2CCCCC2)[C@@H]2C(COC(=O)NC3CCCCC3)=CC[C@H]12 (stereo partly specified) | –
39 | 22.8 µM | CC(=O)OCC1=CC[C@@H]2C(C(=O)Sc3cccs3)=CO[C@@H](O[C@@H]3O[C@H](COC(C)=O)[C@@H](OC(C)=O)[C@H](OC(C)=O)[C@H]3OC(C)=O)[C@H]12 | –
